The text below walks through data of PMC7769008 (Journal of medicinal chemistry, 2020).

For data set [1] the following is noted: pH 7.4.
The next data set deals with HeLa cells. The note with it: 100 μM.
Data set [2] deals with 45 receptors and channels. The note with it: 10 μM; radioligand binding and functional assays.
For data set [3] the following is noted: MLM incubation.
Another data set in a line: in vitro. The note with it: PAMPA, pH 7.4.
In data set [4] the test system is Plk1 localization to centrosomes and kinetochores. In words: Plk1 localization and spindle morphology by immunostaining in HeLa cells. It is filed as cell-based. The note with it: 100 μM, 12 h.
For data set [5] the following is noted: mice, 20 mg/kg, IP, whole period of the experiment.

SMILES strings stand for the structures. “And” between values parts separate entries of the source, which are not always exact repeats. Equal entries are not always repeated.

`CCCn1c(=O)c2ccccc2n2c(S)nnc12` [Compound 21, 4-Propyl-1-thioxo-2,4-dihydro-[1,2,4]triazolo[4,3-a]quinazolin-5(1H)-one]: the “PAMPA” value in data set [1] was 37.0 ×10⁻⁶ cm/s and 37 ×10⁻⁶ cm/s. Besides, the “ability to induce mitotic arrest and an antiproliferation effect” value (“ability” for short) in the data set on HeLa cells is reported as “lacked a detectable level of cellular response”. Also, in data set [2], the potential off-target interactions result is “not detected”.
On to `CCCCn1c(=O)c2ccccc2n2c(S)nnc12` [Compound 23, 4-Butyl-1-thioxo-2,4-dihydro-[1,2,4]triazolo[4,3-a]quinazolin-5(1H)-one], for which the “PAMPA” value in data set [1] turned out to be 77.5 ×10⁻⁶ cm/s. For the same compound, the “major metabolite (LC–MS/MS)” value in data set [3] is given as “glucuronidation is the major metabolite”.
For the compound `CCCn1c(=O)c2cc(F)ccc2n2c(=S)[nH]nc12` [Compound 64, 7-Fluoro-4-propyl-1-thioxo-2,4-dihydro-[1,2,4]triazolo[4,3-a]-quinazolin-5(1H)-one], the “PAMPA” value in data set [1] was 195 ×10⁻⁶ cm/s. The “ability” value with HeLa cells is “lacked a detectable level of cellular response”.
On to `CN(C)CCn1c(=O)c2cc(F)ccc2n2c(=S)[nH]nc12` [Compound 70, 4-(2-(Dimethylamino)ethyl)-7-fluoro-1-thioxo-2,4-dihydro-[1,2,4]triazolo[4,3-a]quinazolin-5(1H)-one], for which, in the data set “in vitro”, the Papp (as a rule, the rate of passage across a membrane or cell layer, normalised by area and donor concentration) was 177 ×10⁻⁶ cm/s.
Turning to `O=C(O)CCC(=O)NCCCn1c(=O)c2cc(F)ccc2n2c(=S)[nH]nc12` [Compound 106, 4-((3-(7-Fluoro-5-oxo-1-thioxo-1,2-dihydro-[1,2,4]triazolo[4,3-a]quinazolin-4(5H)-yl)propyl)amino)-4-oxobutanoic Acid], in data set [1], the “PAMPA” value was under 1 ×10⁻⁶ cm/s.
On the same count and under the same terms, next, `NS(=O)(=O)CCCC(=O)NCCCn1c(=O)c2cc(F)ccc2n2c(=S)[nH]nc12` [Compound 107, N-(3-(7-Fluoro-5-oxo-1-thioxo-1,2-dihydro-[1,2,4]triazolo[4,3-a]-quinazolin-4(5H)-yl)propyl)-4-sulfamoylbutanamide]: 3.0 ×10⁻⁶ cm/s; `O=C(NCCCn1c(=O)c2cc(F)ccc2n2c(=S)[nH]nc12)C1CCCC1` [Compound 108, N-(3-(7-Fluoro-5-oxo-1-thioxo-1,2-dihydro-[1,2,4]triazolo[4,3-a]-quinazolin-4(5H)-yl)propyl)cyclopentanecarboxamide]: 155 ×10⁻⁶ cm/s; `CC(C)(C)OC(=O)NC1CCC(C(=O)NCCCn2c(=O)c3cc(F)ccc3n3c(=S)[nH]nc23)CC1` (centres unmarked) [Compound 110, tert-Butyl (4-((3-(7-fluoro-5-oxo-1-thioxo-1,2-dihydro-[1,2,4]-triazolo[4,3-a]quinazolin-4(5H)-yl)propyl)carbamoyl)cyclohexyl)-carbamate]: 330 ×10⁻⁶ cm/s.
On the same count and under the same terms, next, `O=C(NCCCn1c(=O)c2cc(F)ccc2n2c(=S)[nH]nc12)C1CCOCC1` [Compound 115, N-(3-(7-Fluoro-5-oxo-1-thioxo-1,2-dihydro-[1,2,4]triazolo[4,3-a]-quinazolin-4(5H)-yl)propyl)tetrahydro-2H-pyran-4-carboxamide]: 8.0 ×10⁻⁶ cm/s.
The same measure, in the same setting: next, `CN1CCN(CC(=O)NCCCn2c(=O)c3cc(F)ccc3n3c(=S)[nH]nc23)CC1` [Compound 117, N-(3-(7-Fluoro-5-oxo-1-thioxo-1,2-dihydro-[1,2,4]triazolo[4,3-a]-quinazolin-4(5H)-yl)propyl)-2-(4-methylpiperazin-1-yl)acetamide]: under 1 ×10⁻⁶ cm/s; `O=C(CN1CCOCC1)NCCCn1c(=O)c2cc(F)ccc2n2c(=S)[nH]nc12` [Compound 118, N-(3-(7-Fluoro-5-oxo-1-thioxo-1,2-dihydro-[1,2,4]triazolo[4,3-a]-quinazolin-4(5H)-yl)propyl)-2-morpholinoacetamide]: under 1 ×10⁻⁶ cm/s; `O=C(Cc1ccccc1)NCCCn1c(=O)c2cc(F)ccc2n2c(=S)[nH]nc12` [Compound 120, N-(3-(7-Fluoro-5-oxo-1-thioxo-1,2-dihydro-[1,2,4]triazolo[4,3-a]-quinazolin-4(5H)-yl)propyl)-2-phenylacetamide]: 248 ×10⁻⁶ cm/s.
`O=C(Cc1cccc(F)c1)NCCCn1c(=O)c2cc(F)ccc2n2c(=S)[nH]nc12` [Compound 122, N-(3-(7-Fluoro-5-oxo-1-thioxo-1,2-dihydro-[1,2,4]triazolo[4,3-a]-quinazolin-4(5H)-yl)propyl)-2-(3-fluorophenyl)acetamide]: in data set [1], the “PAMPA” value was determined as 364 ×10⁻⁶ cm/s.
`O=C(Cc1cccc(Cl)c1)NCCCn1c(=O)c2cc(F)ccc2n2c(=S)[nH]nc12` [Compound 124, 2-(3-Chlorophenyl)-N-(3-(7-fluoro-5-oxo-1-thioxo-1,2-dihydro-[1,2,4]triazolo[4,3-a]quinazolin-4(5H)-yl)propyl)acetamide]: the “PAMPA” value in data set [1] was 861 ×10⁻⁶ cm/s.
The same measure, in the same setting: next, `O=C(Cc1ccc(Br)cc1)NCCCn1c(=O)c2cc(F)ccc2n2c(=S)[nH]nc12` [Compound 125, 2-(4-Bromophenyl)-N-(3-(7-fluoro-5-oxo-1-thioxo-1,2-dihydro-[1,2,4]triazolo[4,3-a]quinazolin-4(5H)-yl)propyl)acetamide]: 767 ×10⁻⁶ cm/s.
On the same count and under the same terms, next, `Cc1ccc(CC(=O)NCCCn2c(=O)c3cc(F)ccc3n3c(=S)[nH]nc23)cc1` [Compound 126, N-(3-(7-Fluoro-5-oxo-1-thioxo-1,2-dihydro-[1,2,4]triazolo[4,3-a]-quinazolin-4(5H)-yl)propyl)-2-(p-tolyl)acetamide]: 621 ×10⁻⁶ cm/s; `COc1ccccc1CC(=O)NCCCn1c(=O)c2cc(F)ccc2n2c(=S)[nH]nc12` [Compound 128, N-(3-(7-Fluoro-5-oxo-1-thioxo-1,2-dihydro-[1,2,4]triazolo[4,3-a]-quinazolin-4(5H)-yl)propyl)-2-(2-methoxyphenyl)acetamide]: 379 ×10⁻⁶ cm/s.
In turn, `COc1cccc(CC(=O)NCCCn2c(=O)c3cc(F)ccc3n3c(=S)[nH]nc23)c1` [Compound 129, N-(3-(7-Fluoro-5-oxo-1-thioxo-1,2-dihydro-[1,2,4]triazolo[4,3-a]-quinazolin-4(5H)-yl)propyl)-2-(3-methoxyphenyl)acetamide] yielded a Papp in “in vitro” of 311 ×10⁻⁶ cm/s.
Turning to `COc1ccc(CC(=O)NCCCn2c(=O)c3cc(F)ccc3n3c(=S)[nH]nc23)cc1` [Compound 130, N-(3-(7-Fluoro-5-oxo-1-thioxo-1,2-dihydro-[1,2,4]triazolo[4,3-a]-quinazolin-4(5H)-yl)propyl)-2-(4-methoxyphenyl)acetamide], in data set [1], the “PAMPA” value stood at 233 ×10⁻⁶ cm/s.
For `O=C(Cc1ccccc1C(F)(F)F)NCCCn1c(=O)c2cc(F)ccc2n2c(=S)[nH]nc12` [Compound 131, N-(3-(7-Fluoro-5-oxo-1-thioxo-1,2-dihydro-[1,2,4]triazolo[4,3-a]-quinazolin-4(5H)-yl)propyl)-2-(2-(trifluoromethyl)phenyl)-acetamide], the “PAMPA” value in data set [1] came to 825 ×10⁻⁶ cm/s.
On the same count and under the same terms, next, `N#Cc1ccccc1CC(=O)NCCCn1c(=O)c2cc(F)ccc2n2c(=S)[nH]nc12` [Compound 133, 2-(2-Cyanophenyl)-N-(3-(7-fluoro-5-oxo-1-thioxo-1,2-dihydro-[1,2,4]triazolo[4,3-a]quinazolin-4(5H)-yl)propyl)acetamide]: 156 ×10⁻⁶ cm/s; `CC(C)(C)OC(=O)Nc1ccc(CC(=O)NCCCn2c(=O)c3cc(F)ccc3n3c(=S)[nH]nc23)cc1` [Compound 135, tert-Butyl (4-(2-((3-(7-Fluoro-5-oxo-1-thioxo-1,2-dihydro-[1,2,4]-triazolo[4,3-a]quinazolin-4(5H)-yl)propyl)amino)-2-oxoethyl)-phenyl)carbamate]: 910 ×10⁻⁶ cm/s.
Still for that read-out and setting: next, `O=C(Cc1ccccn1)NCCCn1c(=O)c2cc(F)ccc2n2c(=S)[nH]nc12` [Compound 136, N-(3-(7-Fluoro-5-oxo-1-thioxo-1,2-dihydro-[1,2,4]triazolo[4,3-a]-quinazolin-4(5H)-yl)propyl)-2-(pyridine-2-yl)acetamide]: 68.0 ×10⁻⁶ cm/s.
Same read-out and setting: next, `O=C(Cc1cccnc1)NCCCn1c(=O)c2cc(F)ccc2n2c(=S)[nH]nc12` [Compound 137, N-(3-(7-Fluoro-5-oxo-1-thioxo-1,2-dihydro-[1,2,4]triazolo[4,3-a]-quinazolin-4(5H)-yl)propyl)-2-(pyridine-3-yl)acetamide]: 21.0 ×10⁻⁶ cm/s; `O=C(Cc1ccncc1)NCCCn1c(=O)c2cc(F)ccc2n2c(=S)[nH]nc12` [Compound 138, N-(3-(7-Fluoro-5-oxo-1-thioxo-1,2-dihydro-[1,2,4]triazolo[4,3-a]-quinazolin-4(5H)-yl)propyl)-2-(pyridine-4-yl)acetamide]: under 1 ×10⁻⁶ cm/s.
Turning to `CCCn1c(=O)c2cccc(F)c2n2c(=S)[nH]nc12` [Compound 139, 9-Fluoro-4-propyl-1-thioxo-2,4-dihydro-[1,2,4]triazolo[4,3-a]-quinazolin-5(1H)-one], in the data set with HeLa cells, the “ability” value is on record as “lacked a detectable level of cellular response”.
Regarding `CCCn1c(=O)c2ccccc2n2c(SC)nnc12` [Compound 143, 1-(Methylthio)-4-propyl-[1,2,4]triazolo[4,3-a]quinazolin-5(4H)-one], the “ability” value in the data set on HeLa cells is recorded as “effectively induced rounded cells with apoptotic or aberrant chromosome morphologies”. The spindle bipolarity entry in data set [4] is listed as “significantly compromised”. The signs of toxicity entry in data set [5] is on record as “no signs of toxicity”.
As to `CCCn1c(=O)c2cc(F)ccc2n2c(SC)nnc12` [Compound 144, 7-Fluoro-1-(methylthio)-4-propyl-[1,2,4]triazolo[4,3-a]-quinazolin-5(4H)-one], in the data set on HeLa cells, the “ability” value was “induced mitotic arrest but at a somewhat reduced level”.
The same measure, in the same setting: next, `CCCn1c(=O)c2cccc(F)c2n2c(SC)nnc12` [Compound 145, 9-Fluoro-1-(methylthio)-4-propyl-[1,2,4]triazolo[4,3-a]-quinazolin-5(4H)-one]: “effectively induced rounded cells with apoptotic or aberrant chromosome morphologies”.
